As usually defined, the EC50 is the concentration that produces a half-maximal response.

One series relates to mouse vas deferens. As to the kind of experiment: Electrically‐evoked contraction of the mouse vas deferens. Type of series: cell-based. The method, then:
Vasa deferentia were obtained from outbred MF‐1 mice and mounted vertically in a 4 mL organ bath at an initial tension of 0.5 g. The baths contained Mg^2+‐free Krebs solution (NaCl 118.2 mM, KCl 4.75 mM, KH2PO4 1.19 mM, NaHCO3 25.0 mM, glucose 11.0 mM and CaCl2·6H2O 2.54 mM), which was kept at 35–36°C and bubbled with 95% O2 and 5% CO2. […] Contractions were monitored by a computer using a data recording and analysis system as described previously (Ross et al., 2001). After placement in an organ bath, each tissue was subjected to a stimulation‐free period of 10 min and then stimulated for 10 min. Tissues were then subjected to alternate periods of stimulation (5 min) and rest (10 min) until consistent twitch amplitudes were obtained. This equilibration procedure was followed by a stimulation‐free period of 25 min. Tissues were then stimulated for 5 min after which the first agonist addition was made and stimulation continued until the end of the experiment.

In series [1] the test system is ABH mice. As to the kind of experiment: Open‐field activity monitoring (hypomotility). As to conditions: 1 mg·kg^−1 i.v., 30 min after administration. Type of series: in vivo, mouse. How it is done:
Motor activity was assessed using 27.9 × 27.9 cm open field activity monitor chambers and computer software (Med Associates Inc, St. Albans, VT, USA.). This was typically performed in a darkened room. Recordings were initiated once the mouse entered the chamber and continued for 5 min. These chambers, allowing four simultaneous recordings of individual mice and were fitted with infrared beams that could detect movement in the X, Y planes. The total distance travelled (cm) was recorded. Results are expressed as mean ± SEM. These were analysed by Student's paired t‐test or a one‐way ANOVA with Bonferroni post hoc test, using SigmaStat V3/Sigmaplot V9 or V11 software (Systat Ltd Hounslow, UK. Al‐Izki et al., 2012).

Series [2] relates to ABH mice. Kind of series: Temperature testing (hypothermia). Type of series: in vivo, mouse. The method, then: These recordings were assessed 20 min following administration of compounds. Results are expressed as mean ± SEM, and were analysed by Student's t‐test or a one‐way ANOVA with Bonferroni post hoc test using Sigma/StatV3/Sigmpaplot V9 or V11 software (Pryce et al., 2014).

The test system of series [3] is CB1 receptor‐deficient ABH mice. As to the kind of experiment: Spasticity in CB1 receptor‐deficient mice. Type of series: in vivo, mouse. Conditions: 5 mg·kg^−1 i.v., 30 min (Figure 5A).
Another series relates to mice. Kind of series: Visible sedation, behaviour and tolerability in mice. Conditions: 1 mg·kg^−1 i.v.
In series [4] the test system is spastic ABH mice with EAE. Kind of series: Spasticity: resistance to hindlimb flexion against a strain gauge. Conditions: 1 mg·kg^−1 i.v., racemate.

As to `CC(CO)NC(=O)c1cccc(C=CCCCC(=O)N(C)C)c1` (centres unmarked) [VSN16, 3‐(6‐(dimethylamino)‐6‐oxohex‐1‐enyl)‐N‐(1‐hydroxypropan‐2‐yl)benzamide], the half-maximal effective concentration (EC50) in the series with mouse vas deferens (Mus musculus, read-out: EC50, inhibition of electrically‐evoked contraction) is around 10 nM. Moreover, the “Antagonism of the action by SR141716A” value in the series on mouse vas deferens (pre‐incubation of 31.6 nM SR141617A) is “antagonized”. The “Hypomotility in open field” value in the series on ABH mice [1] was “did not induce”. The Hypothermia entry with ABH mice [2] (1 mg·kg^−1 i.v., 20 min after administration) is on record as “did not induce”. Moreover, the “Cannabimimetic effects after injection directly into the CNS” value with ABH mice [2] (intracerebral (i.c.) route) is on record as “failed to induce cannabimimetic effects”. Besides, the Inhibition of spasticity entry in series [3] and in series [4] was “significantly inhibit spasticity” each time. Also, the “Visible signs of sedation” value in the series with mice is listed as “failed to induce visible signs of sedation”.

These data come from paper PMC5522996, “Big conductance calcium‐activated potassium channel openers control spasticity without sedation” (British Journal of Pharmacology, 2017).
